Measurements from US20240000950A1, “THERAPEUTIC CURE-PRO COMPOUNDS FOR TARGETED DEGRADATION OF BET DOMAIN PROTEINS, AND METHODS OF MAKING AND USING THEM” (CORNELL UNIVERSITY, priority 2020, published 2024).
Entries after “also recorded” stand apart in the source; their conditions may differ.

Legend:
[1] = tested on: Namalwa cells; experiment: CellTiter-Glo cell viability, Namalwa cells; type: cell-based; conditions: 72 h, 10 nM-10 μM, co-dosed 1:1 with CRBN ligand 8047, compared to monomer alone
Description: (§1) All cell lines were purchased from ATCC or DSMZ and grown at 37° C. with 5% C02. Human HeLa cells were cultured in complete growth medium (Dulbecco's modified Eagle's medium (DMEM) supplemented with 10% FBS); MCF7 cells were cultured in complete growth medium (Dulbecco's modified Eagle's medium (DMEM) supplemented with 10% FBS and 0.01 mg/ml human recombinant insulin (Sigma Aldrich); Namalwa and MOLM-13 cells were cultured in complete growth medium (RPMI 1640 medium supplemented with 10% FBS); MV-4-11 were cultured in complete growth medium (Iscove's Modified Dulbecco's medium, supplemented with 10% FBS); HCT116 cells were cultured in complete growth medium (McCoy's 5a Medium supplemented with 10% FBS). For cellular degradation of BRD4 studies, cells were seeded in a 12-well plate at 70-80% confluency, allowed to attach overnight, and incubated with the indicated compounds for the indicated time. […]
CellTiter-Glo® 2.0 Cell Viability Assay (Promega) was carried out following the manufacturer's recommendations. […] After a 72 h incubation, 100 ul of the CellTiter-Glo® substrate was added per well and luminescence was read on a Spectramax M5 (Molecular Devices). […]
Namalwa cells (1×104) were treated for 72 hours with the compounds solubilized in DMSO. […] Cellular viability was determined using the CellTiter-Glo® Luminescent Cell Viability Assay (Promega) described above. […]

[2] = molecular target: T1, BRD4 (Homo sapiens, UniProt O60885); experiment: CURE-PRO-mediated BRD4 degradation in HeLa cells, Western blot; type: cell-based; set-up: endogenous in cells; host or cells: HeLa; conditions: 24 h
Description: (§2) All cell lines were purchased from ATCC or DSMZ and grown at 37° C. with 5% C02. Human HeLa cells were cultured in complete growth medium (Dulbecco's modified Eagle's medium (DMEM) supplemented with 10% FBS); MCF7 cells were cultured in complete growth medium (Dulbecco's modified Eagle's medium (DMEM) supplemented with 10% FBS and 0.01 mg/ml human recombinant insulin (Sigma Aldrich); Namalwa and MOLM-13 cells were cultured in complete growth medium (RPMI 1640 medium supplemented with 10% FBS); MV-4-11 were cultured in complete growth medium (Iscove's Modified Dulbecco's medium, supplemented with 10% FBS); HCT116 cells were cultured in complete growth medium (McCoy's 5a Medium supplemented with 10% FBS). For cellular degradation of BRD4 studies, cells were seeded in a 12-well plate at 70-80% confluency, allowed to attach overnight, and incubated with the indicated compounds for the indicated time. When indicated, a 15-minute pretreatment with 10 μM pomalidomide, 10 μM VHL298, 10 μM Nutlin3a, 1 μM MG-132 or 1 μM Carfilzomib was performed before the addition of CURE-PROs. For washout studies, after CURE-PRO treatment, media was aspirated and incubated with complete medium for the indicated time before lysis.
(§3) Anti-BRD4 (13440, 1:1,000 dilution for Western Blot and 1:25 dilution for ProteinSimple); Anti-BRD2 (5848 1:1,000 dilution for Western Blot and 1:25 dilution for ProteinSimple); β-Actin (3700, 1:2,000 dilution for Western Blot), β-Actin (4970, 1:50 dilution for ProteinSimple) anti-mouse IgG-HRP, and anti-rabbit IgG-HRP antibodies were purchased Cell Signaling Technology. Anti-GAPDH (600-401-A33, 1:100 dilution for ProteinSimple) was purchased from Rockland Immunochemicals, Inc. Anti-BRD3 (sc-81202, 1:200 dilution for Western Blot) was purchased from Santa Cruz Biotechnology.
HeLa, MCF7, or HCT116 cells (2.5-3×10^6) were treated for 24 hours with the indicated compounds solubilized in DMSO. The cells were washed in ice-cold PBS and were then lysed in RIPA lysis buffer (150 mM NaCl, 5 mM EDTA, 1% NP-40, 0.5% sodium deoxycholate, 0.1% SDS, 50 mM Tris, pH 8.0) with Roche protease inhibitor complete cocktail and phosphatase inhibitors (10 mM sodium fluoride, 10 mM sodium pyrophosphate, 1 mM sodium orthovanadate and 20 mM β-glycerophosphate). The total protein concentrations were determined by Bradford Protein Assay and 10-20 μg of protein was loaded onto 4-15% Tris-Glycine gradient gels (Biorad). After standard gel electrophoresis, the separated proteins were transferred to PVDF membrane by wet transfer. The immunoblots were then blocked for 1 hour in 5% skim milk in TBST or 5% BSA in TBST, according to manufacturer's instructions, before an overnight incubation at 4° C. with indicated antibodies and membranes. Membranes were then incubated with the appropriate horseradish peroxidase-conjugated secondary antibodies (1:5,000 dilution) for 1 h at room temperature and the bands were visualized using the Clarity Max Western ECL Substrate (Biorad) and the ChemiDoc Imaging System (Biorad). Signal was detected with ECL Western Blotting Substrate (Pierce) and X-ray film processed with a Konica SRX-101 X-ray film processor or captured by Bio-Rad's Chemidoc Imaging system.
HeLa cells (2.5×10^6) were treated for 24 hours with the sample compounds solubilized in DMSO. Compounds were added at 1-10 μM each. Standardized protein samples were electrophoresed and imaged as described in the immunoblotting description above. FIGS. 6-18 depicts the CURE-PRO-mediated BRD4 degradation for BRD monomers (JQ1 derivatives comprising of catechol linkers), and CRBN ligands, 8048 and 8049 (pomalidomide derivatives comprising boronic acid linkers) combined in a 1:1 ratio.
HeLa cells (2.5×10^6) were treated for 24 hours with the compounds solubilized in DMSO. The compounds were added at 10 μM each. Standardized protein samples were electrophoresed and imaged as described in the immunoblotting section above. […]

[3] = molecular target: T1, BRD4; experiment: CURE-PRO-mediated BRD4 degradation in HeLa cells, WES capillary electrophoresis (ProteinSimple); type: cell-based; set-up: endogenous in cells; host or cells: HeLa; conditions: 4-24 h, 10 μM each, co-dosed with CRBN ligand 8047, washed after 4 h
Description: as §2, §3
WES Simple analysis was performed on WES system (ProteinSimple-Biotechne) according to the manufacturer's instructions. Total protein concentrations of cell lysates were determined by the Pierce BCA kit (Thermo Fisher). 3 μL of 0.3 μg/uL of the protein lysate was loaded onto a 12- to 230-kDa WES assay plate (ProteinSimple) where 300 nL sample was withdrawn through a capillary, subjected to electrophoretic separation of proteins by size, and followed by the simultaneous, HRP-based detection of proteins using the Anti-Rabbit Detection Module (Proteinsimple: #DM-001). The electropherograms were checked then the automatic peak detection was manually corrected if it was required.
HeLa cells (2.5×10^6) were treated for 4-24 hours with the compounds solubilized in DMSO. After 4 hours, indicated points were washed and cells were left in full growth media. Compounds were added at 10 μM each. […]

[4] = molecular target: T1, BRD4; experiment: Summary of E3 ligase directed degradation of BRD4, estimated from Western Blot or WES (Tables 1-6); type: cell-based; set-up: endogenous in cells; host or cells: HeLa, MCF7 or HCT116
Outline: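 HeLa, MCF7 or HCT116 cells treated 24 h with compounds in DMSO, lysed in RIPA buffer; BRD4 levels read by Western blot (ECL detection) or capillary WES with HRP detection. Check mark denotes 30% to 70% or higher protein degradation.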

[5] = tested on: MV-4-11 cells; experiment: CellTiter-Glo cell viability, MV-4-11 cells; type: cell-based; conditions: 1 nM-100 μM, cotreated 1:1 with CRBN ligand 8049
Description: as §2
CellTiter-Glo® 2.0 Cell Viability Assay (Promega) was carried out following the manufacturer's recommendations. Cells were seeded at a density of 1000 cells/well in a white 96 well plates (Corning, #3917) in a total volume of 100 μl with respective monomers, combinations of BRD ligands together with E3 ligase ligands or vehicle control treatment. After a 72 h incubation, 100 ul of the CellTiter-Glo® substrate was added per well and luminescence was read on a Spectramax M5 (Molecular Devices). Dose-response curves were generated using Graphpad Prism software.
MV-4-11 cells (5×104) were treated for 24 hours with the sample compounds solubilized in DMSO. The compounds were added at 1 nM-100 μM each. Cellular viability was determined using the CellTiter-Glo® Luminescent Cell Viability Assay (Promega) described above. FIGS. 19-22 depict the CURE-PRO-mediated loss of cellular viability for BRD monomers (JQ1 derivatives comprising of catechol linkers), and CRBN ligand, 8049 (pomalidomide derivatives comprising boronic acid linkers) combined in a 1:1 ratio.
MV-4-11 cells (1×104) were treated for 72 hours with the compounds solubilized in DMSO. Compounds were added at 10 nM-100 μM each. Cellular viability was determined using the CellTiter-Glo® Luminescent Cell Viability Assay (Promega) described above. FIGS. 47-54 depict the CURE-PRO-mediated loss of cellular viability for BRD monomers (JQ1 derivatives comprising of boronic acid linkers), and CRBN ligands, 8046, 8047, and 8066 (pomalidomide derivatives comprising diol linkers) combined in a 1:1 ratio.

[6] = tested on: SLC19A1; experiment: Suppression of the c-MYC downstream target gene SLC19A1, RT-PCR in HeLa cells; type: cell-based, Human; conditions: 24 h, 10 μM each
Description: The suppression of the expression of the downstream c-MYC target, SLC19A1, was measured by RT-PCR using Power SYBR® Green Cells-to-Ct™ Kit (Life Technologies). Adherent cells were plated on 96 well plates at 5,000 cells per well were treated for 24 h with monomer compounds and compounds capable of reversible interactions (1 nM-100 μM). Cells were subsequently washed in ice-cold PBS processed according to the manufacturer's instructions. Quantitative real-time PCR was performed using a ViiA™ 7 Real-time PCR System (Applied Biosystems, Foster City, CA, USA). GAPDH and ACTB served as internal controls. The primers used were (5′-3′): GAPDH-F: AGCCACATCGCTCAGACAC (SEQ ID NO:9), GAPDH-R: GCCCAATACGACCAAATCC (SEQ ID NO:10), ACTB-F: CCAACCGCGAGAAGATGA (SEQ ID NO:11), ACTB-R: […] (SEQ ID NO:12), SLC19A1-F: […] (SEQ ID NO:13), SLC19A1-R: […] (SEQ ID NO:14).
HeLa cells (1×104) were treated for 24 hours in 96 well plates with the compounds solubilized in DMSO. Compounds were added at 10 μM each and RNA expression measured by the Cells-to Ct method described above (Thermofisher).

[7] = molecular target: T1, BRD4; experiment: BRD protein family degradation in HCT116 cells with MDM2 ligands, Western blot: BRD4; type: cell-based; set-up: endogenous in cells; host or cells: HeLa, MCF7 or HCT116; conditions: 24 h, with MDM2 ligands 8310 / 8312
Description: as §1
HeLa, MCF7, or HCT116 cells (2.5-3×10^6) were treated for 24 hours with the indicated compounds solubilized in DMSO. […] The total protein concentrations were determined by Bradford Protein Assay and 10-20 μg of protein was loaded onto 4-15% Tris-Glycine gradient gels (Biorad). […] Signal was detected with ECL Western Blotting Substrate (Pierce) and X-ray film processed with a Konica SRX-101 X-ray film processor or captured by Bio-Rad's Chemidoc Imaging system. […]

| Structure (SMILES) | loss of cell viability (CellTiter-Glo) [1] | BRD4 degradation with pomalidomide and the BRD ligand (no 8047) ([2]; 10 μM) | BRD4 degradation after preincubation with pomalidomide ([2]; 10 μM, 1:1 with CRBN ligand 8047, pomalidomide preincubated 15 min at equimolar concentration) | BRD4 degradation ([2]; BRD ligand (monomer) alone) | BRD4 degradation, time dependence and washout [3] | Degradation of BRD4, combination with CRBN ligand [drawing 421] ([4]; Table 1, CRBN ligand drawn as drawing 421 (by the text apparently 8047)) | toxicity / loss of cellular viability (CellTiter-Glo) [5] | suppression of SLC19A1 expression ([6]; with MDM2 ligand 8310) | suppression of SLC19A1 expression ([6]; with MDM2 ligand 8312) | selectivity of degradation within the BRD protein family [7] | Degradation of BRD4, combination with MDM2 ligand [drawing 463] ([4]; Table 5, aryl-boronic acid-containing MDM2 ligand drawn as drawing 463 (apparently 8310)) | Degradation of BRD4, combination with MDM2 ligand [drawing 464] ([4]; Table 5, aryl-boronic acid-containing MDM2 ligand drawn as drawing 464 (apparently 8312)) |
| --- | --- | --- | --- | --- | --- | --- | --- | --- | --- | --- | --- | --- |
| CCNC(=O)C[C@@H]1N=C(c2ccc(Cl)cc2)c2cc(-c3cccc(B(O)O)c3)ccc2-n2c(C)nnc21 [BRD-E72, (3-((4S)-6-(4-chlorophenyl)-4-(2-(ethylamino)-2-oxoethyl)-1-methyl-4H-benzo[f][1,2,4]triazolo[4,3-a][1,4]diazepin-8-yl)phenyl)boronic acid] | the dose-response curves shifted towards the left; also recorded: marked loss in cell viability | failed to induce BRD4 degradation | inhibition of CURE-PRO-mediated BRD4 degradation | no change in expression is observed | marked BRD4 degradation after 4 h with sustained degradation for up to 8 h after drugs are washed out | ✓ (A black check mark indicates efficacy of 30% to 70% or higher protein degradation) | – | – | – | – | – | – |
| CCNC(=O)C[C@@H]1N=C(c2ccc(Cl)cc2)c2cc(OCCNC(=O)c3cccc(O)c3O)ccc2-n2c(C)nnc21 [BRD-N25] | – | – | – | – | – | – | a concentration-dependent loss in cellular viability was observed; also recorded: increased toxicity | a rightward shift in the curve and an increase in the Ct values | a rightward shift in the curve and an increase in the Ct values | some selectivity for BRD3 and BRD4 over BRD2 for 8310 | ✓ (A black check mark indicates efficacy of 30% to 70% or higher protein degradation) | ✓ (A black check mark indicates efficacy of 30% to 70% or higher protein degradation) |
